This is an account of results in patent publication US20260007674A1, “Novel Chemotypes for Treating Parasitic Diseases and Methods of Use” (The Medical College of Wisconsin, Inc., priority 2022, published 2026).

Data set [1] has as its system S. mansoni. Description: Adult schistosome movement assay ex vivo (contraction and paralysis). In kind it is cell-based, Schistosoma mansoni. How it is done:
It was observed that N-amidoquinazolinones contract S. mansoni in a manner similar to the channel activator (and standard of treatment) praziquantel. Adult schistosomes were harvested from the mesenteric vasculature of female Swiss Webster mice previously infected (˜49 days earlier). Harvested schistosomes were washed in RPMI 1640 supplemented with 5% heat inactivated FBS, HEPES, and penicillin-streptomycin. After isolation, worms were incubated overnight in vented petri dishes. Movement assays were performed using male and female worms in six well dishes (˜5 individual worms/3 ml media per well). Schistosomes were treated with a molecule such as compound 4, and video recordings of worm motility were captured using a stereomicroscope coupled to a CCD camera. […] It was also observed that 2-amidoacrylates or 2-amidoacrylamides contract S. mansoni in a manner similar to the channel activator (and standard of treatment) praziquantel. The worm mobility assay performed in FIG. 13 is same as that performed in FIG. 3. Briefly, adult schistosomes were harvested from the mesenteric vasculature of female Swiss Webster mice previously infected (˜49 days earlier). Harvested schistosomes were washed in RPMI 1640 supplemented with 5% heat inactivated FBS, HEPES, and penicillin-streptomycin. After isolation, worms were incubated overnight in vented petri dishes. […]

A short description of data set [2]: Toxicity observation in treated mice of the schistosomiasis model. In kind it is in vivo. The conditions noted are these: 50 mg/kg intraperitoneal 1× daily for 3 days. How it is done:
(§1) All animal experiments followed ethical regulations approved by the MCW IACUC committee. At 7 weeks post-infection, mice were randomly sorted into 4 groups of 13 mice. One group was left untreated as a control. A second group was treated with vehicle (a mixture of DMSO/PEG400/H2O). A third group was treated with praziquantel (50 mg/kg, intraperitoneal, 1× daily) for 3 days in a row. In addition, a fourth group was treated with BZQ/S55 in the same fashion as praziquantel. Four days after the first treatment, the mice were euthanized, and the mesenteric vasculature was dissected in the usual fashion to recover schistosomes. The worm burden from each mouse was individually plotted (FIG. 16). There was no significant difference between untreated mice and mice treated with vehicle, confirming that the vehicle the drugs were dosed in had no effect on worm burden.

For another data set, the system named is F. hepatica. Description: Electron microscopy of tegument of treated F. hepatica. In kind it is cell-based, Fasciola hepatica. The conditions noted are these: FIGS. 17K and 17L. From the text:
FIGS. 17A-L show representative BZQ/S55 ex vivo activities on Fasciola hepatica adults and immature worms.

Data set [3] concerns S. mansoni. Description: Electron microscopy of tegument of treated S. mansoni. Type of data set: cell-based, Schistosoma mansoni. The following applies: FIG. 17H, 17I.
For a further data set, the system named is Fasciola hepatica. Description: Ex vivo treatment of immature and adult F. hepatica (contraction, motility, viability). In kind it is cell-based. How it is done:
Briefly, Male Wistar rats served as the final host to obtain immature and adult stages of F. hepatica after infection with metacercariae from an Italian strain of F. hepatica. Immature flukes were collected from livers 4 weeks post-infection. Adult flukes were collected from bile ducts at 12 weeks post-infection. Worms were kept for 1 h in normal saline to allow clearance of gut contents and then used for experiments. In vitro experiments were performed utilizing a similar procedure as previously reported. Excised worms were treated with different concentrations of praziquantel, triclabendazole, BZQ/S55, S5, and S69, or DMSO as a negative control. The flukes were incubated at 37° C. in a 5% CO2 atmosphere for 72 h, and inhibitor-induced effects on worm viability were assessed using a stereomicroscope at 10× magnification. Worm motility was assessed using the following scores: 3 (normal motility), 2 (reduced motility), 1 (minimal and sporadic movements), and 0 (no movement even upon mechanical stimulation with forceps; considered dead). Representative results from these studies are shown FIGS. 17A-L.

For data set [4], the system named is S. mansoni. Description: Murine model of schistosomiasis, worm burden. In kind it is in vivo, mice. The conditions noted are these: 50 mg/kg intraperitoneal 1× daily for 3 days, FIG. 16; for worm burden: Female Swiss Webster mice, 7 weeks post-infection, recovery four days after first treatment. How it is done: as §1

“Also recorded” adds a separate entry of the source.

Turning to `O=C(Nn1c(-c2cccc(Cl)c2)nc2ccccc2c1=O)c1ccccc1` [BZQ/S55, N-(2-(3-chlorophenyl)-4-oxoquinazolin-3(4H)-yl)benzamide], the “effect on Schistosomes” value with S. mansoni [1] (treated with BZQ/S55, FIG. 17C) is “mimics praziquantel on schistosomes; also recorded: Rapid, sustained contraction and paralysis”. Moreover, in data set [2], the toxicity result is “no toxicity was noticed”. Also, the “tegument of F. hepatica in electron microscopy image” value in the data set on F. hepatica is listed as “notable tegument damage”. The “tegument of S. mansoni in electron microscopy image” value in the data set on S. mansoni [3] is “tegument was destroyed”. Moreover, the “ex vivo activity on Fasciola hepatica adults and immature worms” value in the data set with Fasciola hepatica (immature (4 weeks post-infection) and adult (12 weeks) flukes from rats) is recorded as “active ex vivo”. Further, in the data set on Fasciola hepatica (treated with BZQ/S55, FIG. 17C), the “effect on Fasciola hepatica” value is “Rapid, sustained contraction and paralysis”. In the data set on S. mansoni [4], the “efficacy compared with praziquantel, the standard of treatment” value is given as “as effective as praziquantel” and the worm burden entry is “significant reduction in worm burden”.

On to `O=C(C1CCCCC1)N1CC(=O)N2CCc3ccccc3C2C1` (stereo not drawn) [Praziquantel, praziquantel, reference compound], for which, in the data set on S. mansoni [1] (Praziquantel 500 nM, FIG. 17A), the “effect on Schistosomes” value is “rapid, spastic paralysis”. The “tegument of S. mansoni in electron microscopy image” value in the data set with S. mansoni [3] was “tegument was destroyed”. Also, the “effect on Fasciola hepatica” value in the data set with Fasciola hepatica (praziquantel 50 μM, FIG. 17B) is “Neither treatment has an effect”. Moreover, the worm burden result in the data set on S. mansoni [4] is “significant reduction in worm burden”.
